No end group written: not given here.
Key:
NEP [1] = experiment: in vitro; type: in vitro ADME; settings: human, isolated enzyme neprilysin; 30 µM peptide, NEP 1.5 ng, Tris HCl 50 mM, pH 7.5, 4 h, 37 °C, RP-HPLC C18, UV 214 nm; read-out: hydrolysis products after incubation with NEP
Procedure: (§1) Figure 1 Analysis of the susceptibility to hydrolysis of the hypotensins over the vasopeptidases NEP and ACE. Incubations were carried out in Tris HCl 100 mM, NaCl 50 mM and ZnCl2 10 µM, pH 7.0, for the ACE assays, and, for the NEP assays, in Tris HCl 50 mM, pH 7.5 buffer, for four hours at 37 °C. (A) TsHpt-I control (black line) and after incubation with NEP (red line). (B) TsHpt-II control (black line) and TsHpt-II incubated with NEP (red line). (C) TsHpt-I control (black line) and incubated with ACE (red line). (D) TsHpt-II control (black line) and after incubation with ACE (red line). The samples of negative and experimental controls (A) TsHpt-I and (B) TsHpt-II are shown on the left and right, respectively. The hydrolysis products were considered ≤5%. The gradient used was 20% to 60% solvent B in 20 min, and 60% to 100% solvent B in 5 min (flow 1 mL/min, absorbance at 214 nm). Restek Ultra C-18 5 µm column, 250 × 4.6 mm.
(§2) The synthetic peptides TsHpt-I and TsHpt-II (30 µM) were incubated with ACE (3.0 ng), in Tris HCl 100 mM, NaCl 50 mM and ZnCl2 10 µM, pH 7.0 buffer, and NEP (1.5 ng), in Tris HCl 50 mM, pH 7.5 buffer, at 37 °C for 4 h. Samples containing only the synthetic peptides were used as the negative control. After incubation, samples were analyzed by reverse phase chromatography on RP-HPLC (Shimadzu, Kyoto, Japan), using a Restek Ultra C-18 column (5 µm, 250 × 4.6 mm). […]

ACE = test system: T1, ACE; experiment: Stability of peptides against ACE (susceptibility to hydrolysis, RP-HPLC); type: in vitro ADME; settings: rabbit, isolated ACE (angiotensin-converting enzyme); 30 µM peptide, ACE 3.0 ng, Tris HCl 100 mM, NaCl 50 mM, ZnCl2 10 µM, pH 7.0, 4 h, 37 °C, RP-HPLC C18, UV 214 nm; read-out: hydrolysis products after incubation with ACE
T1 construct: Angiotensin Converting Enzyme (ACE) from rabbit lung; purchased Sigma-Aldrich; host or cells: rabbit lung tissue
Procedure: as §1, §2

[2] = test system: murine peritoneal macrophages; experiment: Cytokine production by murine peritoneal macrophages, CBA method; type: cell-based, BALB/c mice; settings: 24 h; for release of IL-10, IL-12p70, IFN-γ and MCP-1: 10, 50 and 100 µg/mL, data not shown
Procedure: Figure 4 Cytokine production by murine peritoneal macrophages stimulated in vitro with TsHpt-I and -II. Peritoneal exudate macrophages from naïve BALB/c mice were cultured for 24 h in the presence of TsHpt-I (A,C) and -II (B,D), at concentrations of 10 µg/mL, 50 µg/mL and 100 µg/mL. Cells cultured with medium alone or in the presence of 5 µg/mL LPS were used as negative and positive controls, respectively. The concentrations of TNF (A,B) and IL-6 (C,D) were determined by the CBA method, according to the manufacturer’s instructions. The results represent the mean ± SD of three independent experiments performed in triplicate. * p < 0.05.
Peritoneal exudate cells (BALB/c naïve mice, n = 6) were collected by two washes with 5 mL of RPMI medium. The cells obtained were washed twice with RMPI medium, at 400 g, for 10 min, at 18 °C, and resuspended in R10 medium (RPMI + 10% fetal cow serum). After counting in a Neubauer chamber, in the presence of Trypan blue, the cell concentration was adjusted to 2 × 10^6 cells/mL. Cells were distributed into 96-well culture plates (2 × 10^5 cells/100 µL/well) and incubated for 2 h at 37 °C and 5% CO2. After incubation, non-adherent cells were discarded, and adherent cells (macrophages) were resuspended in R10 medium containing the respective tested stimuli, at different concentrations, in triplicates, in a final volume of 200 µL/well. Cells resuspended in R10 medium were used as a negative control, and cells stimulated with LPS (5 µg/mL) as a positive control. Cells were then incubated for 24 h at 37 °C and 5% CO2. After this period, the culture supernatants were collected and stored at −80 °C, for subsequent dosage of cytokines, and cell viability was determined by MTT assay.
The concentration of pro- and anti-inflammatory cytokines (IL-6, IL-10, IL-12p70, […], MCP-1 and TNF) in the samples incubated with both hypotensins (10 µg/mL, 50 µg/mL and 100 µg/mL) was determined by the CBA method (BD Cytometric Bead Array Mouse Inflammation Kit), according to the manufacturer’s instructions. The samples were acquired in a BD FACSCanto II flow cytometer, and the data were analyzed using BD FCAP Array version 3.0 software.

NEP [3] = experiment: Modulation of NEP activity, FRET substrate Abz-RGFK(Dnp)-OH; type: biochemical, human; settings: 10 µM peptide, 1.5 ng NEP, Abz-RGFK(Dnp)-OH (3.5 µM in method, 10 µM in table note), Tris HCl 50 mM, pH 7.5, 37 °C, 15 min, fluorescence 320/420 nm, triplicate
Procedure: The results were obtained by incubating the enzymes with their FRET substrates (10 µM) in a final volume of 100 µL. For the ACE assays, the used buffer was Tris HCl 100 mM, NaCl 50 mM and ZnCl2 10 µM, pH 7.0. For NEP, the assays were made in Tris HCl 50 mM, pH 7.5 buffer. All reactions occurred at 37 °C, in a Victor 3 fluorimeter (Perkin–Elmer) adjusted for excitation and emission readings at 320 and 420 nm, respectively, for 15 min (one reader per minute). Results were obtained in triplicate and analyzed on GraFit 5 software.
For ACE assays, 10 µM of each peptide was incubated with 3.0 ng of peptidase and 10 µM of Abz-FRK (Dnp) P-OH substrate, in Tris HCl 100 mM, NaCl 50 mM and ZnCl2 10 µM, pH 7.0 buffer. For NEP, 10 µM of TsHpt-I or -II was incubated with 1.5 ng of peptidase, 3.5 µM Abz-RGFK (Dnp)-OH in Tris HCl 50 mM, pH 7.5 buffer. All reactions occurred at 37 °C, in a final volume of 100 µL, in a Victor 3 fluorimeter (Perkin–Elmer, Waltham, MA, USA) adjusted for excitation and emission readings at 320 and 420 nm, respectively, for 15 min (one reader per minute). Results were obtained in triplicate and analyzed using GraFit 5 (Erithacus software, East Grinstead, West Sussex, UK).

[4] = 100 µg/mL, three independent experiments in triplicate

| Sequence | metabolised at 4 h, 30 µM (NEP [1]) [%] | metabolised at 4 h, 30 µM (ACE) [%] | release of IL-6 [2, 4] | release of TNF [2, 4] | release of IL-10, IL-12p70, IFN-γ and MCP-1 [2] | NEP Inhibition (%) (NEP [3]) |
| --- | --- | --- | --- | --- | --- | --- |
| AEIDFSGIPEDIIKEIKETNAKPPA [TsHpt-II] | ≤ 5 | ≤ 5 | induced the release of IL-6 | release of significant levels of TNF | None of the peptides were able to induce the release | 11 |
| AEIDFSGIPEDIIKQIKETNAKPPA [TsHpt-I] | ≤ 5 | ≤ 5 |  | release of significant levels of TNF | None of the peptides were able to induce the release | 75 |

Reference: PMC8704389, “New Insights into the Hypotensins from Tityus serrulatus Venom: Pro-Inflammatory and Vasopeptidases Modulation Activities” (Toxins, 2021)
